Data reported in patent US5534416A, “Fluorescent viability assay using cyclic-substituted unsymmetrical cyanine dyes” (Molecular Probes, Inc., priority 1993, dated 1996).

How the values were obtained:
nucleic acids [1] = details: cited from earlier work
[2] = test system: NIH/3T3 mouse fibroblast cell line; assay: Live/dead staining of fibroblasts, fluorescence microscopy; type: cell-based
Method: NIH/3T3 mouse fibroblast cell line is obtained from American Type Culture Collection Co., Rockville, Md. The cells are maintained in a humidified atmosphere of 5% CO2 in Dulbecco's modified Eagle's medium (DMEM) supplemented with 10% calf serum, 50 μg/mL gentamicin, 300 μg/mL L-glutamine and 10 mM HEPES pH 7.4. Cells are subcultured every 3 days by trypsinization using 0.05% trypsin and 0.02% EDTA in a Ca- and Mg-free saline solution (Gibco BRL, Gaithersburg, Md.).
A 5 μM staining solution of the dye 61 is prepared by dilution of 25 μL of 2 mM stock solution into 10 mL DMEM. A 2 μM staining solution of ethidium homodimer-1 is prepared by dilution of 2 μL of 10 mM stock solution into 10 mL phosphate buffered saline (PBS).
The 3T3 cells are stained with the 5 μM solution of dye 61, and then incubated in the dark at room temperature for 30 minutes. The cells are then […] with the 2 μM ethidium homodimer-1 solution.
The 3T3 cells are then observed a long-pass fluorescein filter to view dye 61 fluorescence and a long-pass Texas Red® filter to view the emission of ethidium homodimer. A Nikon fluorescence microscope equipped with a 40× objective is used for inspection and photography.

calf thymus DNA = details: Table 5; bound to excess calf thymus DNA (50 bp/dye); cited from earlier work
B. cereus = assay: Fluorescence per cell, stained bacteria (microtiter plate reader); type: cell-based, Bacillus cereus; details: optimal dye concentration, corrected for cell number
Method: (§1) 1. Measured in a fluorescence microtiter plate reader with extraction and
(§2) emission filters at 485+/-10 and 530+/-12, respectively. Fluorescence dat
(§3) are corrected for cell number; but are not corrected for cell volume or
(§4) 2. Optimal dye concentrations determined as in Example 3.
(§5) 3. Suspension concentrations as used for Example 3.
(§6) A culture of E. coli is washed by centrifugation and resuspended in water to its original volume. Using Corning 96-well microtiter plates with flat bottoms, 150 μL volumes of suspension are loaded per well. A single well of sterile water is the well background standard. Using a Dynatech MR600 microplate reader equipped with a 410 nm filter, absorbance is determined for the initial volumes of suspension. The suspension is diluted seven times by serial ten-fold dilutions in water, 150 μL of suspension per well, and the absorbance measured for each dilution. Following the absorbance measurements, each dilution loaded into wells is further diluted 1:10 and plated in duplicate on nutrient growth agar. The colonies are counted and expressed as colony forming units per milliliter (cfu/mL). Using the turbidity of the dilution in the microtiter plate, the suspension is diluted to a density of about 1×10^9 cfu/mL.
(§7) The bacteria suspension, adjusted to a known density as described above, is diluted seven times by serial ten-fold dilutions in water; 150 μL of suspension per well. Three-fold serial dilutions of dye are used (30-0.04 μM); 50 μL of dye at 4× final concentration. Using Corning 96-well microtiter flat-bottom plates, a matrix is set up whereby the cell concentration decreases across the plate and the dye concentration decreases down the plate, final volume per well is 200 μL. The top row and first column are reserved for the control, sterile water. The plate is incubated at 37° C. for 30 minutes, then read in a Millipore Cytofluor™ 2350 96-well fluorescence microplate reader at a fixed excitation of 485+/-10 nm and each of three emission wavelengths, 530+/-12, 620+/-20, or 645+/-20 nm. The results determine the best dye range (30-1 μM) and the best cell concentrations (concentrated through first three ten-fold dilutions) for optimal dye loading. […] Using the four dye dilutions and the four bacterial dilutions, many bacteria and dyes can be assayed quickly. The data collected allow the determination of optimal dye and cell concentration required for maximal fluorescence intensity per cell.

E. coli = assay: as above; type: cell-based, Escherichia coli; details: for Fluorescence/Cell (ex 485/em 530): E. coli, optimal dye concentration, corrected for cell number; for Normalized Fluorescence/cell (ex 485 nm/em 530 nm), Escherichia coli: scaled to thiazole orange
Source text: as §1, §2, §3, §4, §5
(§8) Factors such as degree of fluorescence enhancement with nucleic acid binding, self quenching, molar extinction coefficient, membrane permeability, intracellular partitioning, nucleic acid binding affinity, and quantum yield contribute to the overall fluorescence of nucleic acid stains in cells. Enhanced cell fluorescence obtained with Dye I is related to unexpected properties other than quantum yield alone. Quantum yield is determined as described above (foot note to Table 2). Normalized quantum yield is determined to illustrate the fold-change in quantum yield of Dye I compared with thiazole orange, a related cell-permeant dye. The normalized fluorescence values represent the quantum yield of each dye divided by the quantum yield of thiazole orange. Fluorescence per cell is also scaled to thiazole orange values for both E. coli and S. aureus to allow direct comparison between relative (normalized) quantum yield and relative (normalized) fluorescence/cell.
as §6, §7

DNA = assay: Quantum yield of dye on DNA versus fluorescein; type: physicochemical; details: for Normalized QY: QY divided by QY of thiazole orange; for QY (DNA): Table 2, Tris buffered saline pH 10, fluorescein assumed 0.92; for QY: Table 7, on DNA, fluorescein reference
Source text: ^ Quantum yield (QY) of dye on DNA (standard solution in Tris buffere
saline adjusted to pH 10) in comparison with fluorescein, which is assume
to have a quantum yield of 0.92 under the test conditions.
as §8

P. aeruginosa = assay: Fluorescence per cell, stained bacteria (microtiter plate reader); type: cell-based, Pseudomonas aeruginosa; details: optimal dye concentration, corrected for cell number
Method: as §1, §2, §3, §4, §5, §6, §7

S. aureus = assay: as above; type: cell-based, Staphylococcus aureus; details: for Fluorescence/Cell (ex 485/em 530): S. aureus, optimal dye concentration, corrected for cell number; for Normalized Fluorescence/cell (ex 485 nm/em 530 nm), Staphylococcus aureus: scaled to thiazole orange
Source text: as §1, §2, §3, §4, §5, §8, §6, §7

S. sonnei = assay: as above; type: cell-based, Shigella sonnei; details: optimal dye concentration, corrected for cell number
Method: as §1, §2, §3, §4, §5, §6, §7

S. oranienburg = assay: as above; type: cell-based, Salmonella oranienburg; details: optimal dye concentration, corrected for cell number
Method: as §1, §2, §3, §4, §5, §6, §7

S. pyogenes = assay: as above; type: cell-based, Streptococcus pyogenes; details: optimal dye concentration, corrected for cell number
Method: as §1, §2, §3, §4, §5, §6, §7

K. pneumonia = assay: as above; type: cell-based, Klebsiella pneumonia; details: optimal dye concentration, corrected for cell number
Method: as §1, §2, §3, §4, §5, §6, §7

nucleic acids [3] = assay: Excitation/emission maxima of dyes complexed with nucleic acids; type: physicochemical; set-up: key: wavelength in nm; details: Table 2; dye complexed with nucleic acids
Source text: Dye I is lightly colored and is virtually non-fluorescent when diluted in aqueous solution according to the method of the invention. Dye I is highly membrane-permeant and labels all cells, whether live or dead. When Dye I binds with intracellular nucleic acid polymers such as DNA and RNA, the resultant dye-nucleic acid complex becomes extremely fluorescent upon illumination. The quantum yield of the preferred Dye I/DNA complex is greater than 0.02, typically greater than 0.1, preferably greater than 0.2, and more preferably greater than 0.3. Typically, Dye I combines with intracellular nucleic acids to give a green or red fluorescence. When excited at a wavelength between about 300 nm and about 500 nm, the dyes complexed with nucleic acids have an emission maximum between about 500 and about 610 nm (see Table 2). Preferably, Dye I complexed with nucleic acids has an emission maximum of between about 500 nm and about 535 nm, resulting in a true green fluorescent signal in cells of the sample where Dye I is present alone.

M. luteus = assay: Fluorescence per cell, stained bacteria (microtiter plate reader); type: cell-based, Micrococcus luteus; details: optimal dye concentration, corrected for cell number
Method: as §1, §2, §3, §4, §5, §6, §7

[4] = test system: Peripheral blood lymphocytes; assay: Live/dead staining of peripheral blood lymphocytes, fluorescence microscopy; type: cell-based, goat; details: 1 μM dye 637, 1 μM calcein AM, 30 minutes each, either order
Method: Peripheral blood lymphocytes are isolated from whole goat blood using the standard ficoll density gradient protocol. The cells are incubated in saline buffer with coverslips coated with a cell adhesive. After attachment to the coverslip, the cells are incubated with either
a) 1 μM dye 637 for 30 minutes followed by washing, and subsequently incubating with 1 μM calcein AM for 30 minutes, or
b) as above but labeling first with calcein AM, and subsequently staining with dye 637.
After washing with saline, the stained cells are viewed through a long-pass fluorescein filter to view calcein fluorescence and a long-pass Texas Red® filter to view the emission of dye 637. A Nikon fluorescence microscope equipped with a 40× objective is used for inspection and photography.

prokaryotic microbes = details: Kaneshiro et al. 1993; cited from earlier work
intact cells = details: cited from earlier work

## N=C(N)c1ccc(-c2cc3ccc(C(=N)N)cc3[nH]2)cc1 [DAPI]
Nucleic acids [1]; background
  excitability of nucleic acid complex: only excitable with UV light
  spectral overlap of DNA-bound dye with cellular autofluorescence: overlap significantly with cellular autofluorescence

## Nc1ccc2c(c1)c(-c1ccccc1)[n+](CCCNCCNCCC[n+]1c(-c3ccccc3)c3cc(N)ccc3c3ccc(N)cc31)c1cc(N)ccc21 [Ethidium homodimer-1]
[2]; 2 μM
  staining of dead cells: dead cells are stained fluorescent red
Calf thymus DNA
  EM max: 617 nm
  EX max: 528 nm

## CCOc1ccc(-c2nc3ccc(-c4nc5ccc(N6CCN(C)CC6)cc5[nH]4)cc3[nH]2)cc1 [Hoechst 33342]
Nucleic acids [1]; background
  excitability of nucleic acid complex: only excitable with UV light
  spectral overlap of DNA-bound dye with cellular autofluorescence: overlap significantly with cellular autofluorescence

## CN1C(=Cc2cc[n+](C)c3ccccc23)Sc2ccccc21 [Thiazole Orange, reference compound]
B. cereus
  Fluorescence/Cell (ex 485/em 530): 51
E. coli
  Fluorescence/Cell (ex 485/em 530): 2
  Normalized Fluorescence/cell (ex 485 nm/em 530 nm), Escherichia coli: 1
DNA
  Normalized QY: 1.0
  QY (DNA): 0.18
  QY: 0.18
P. aeruginosa
  Fluorescence/Cell (ex 485/em 530): 2
S. aureus
  Fluorescence/Cell (ex 485/em 530): 3.2
  Normalized Fluorescence/cell (ex 485 nm/em 530 nm), Staphylococcus aureus: 1.0
S. sonnei
  Fluorescence/Cell (ex 485/em 530): 1
S. oranienburg
  Fluorescence/Cell (ex 485/em 530): 1
S. pyogenes
  Fluorescence/Cell (ex 485/em 530): < 0.01
K. pneumonia
  Fluorescence/Cell (ex 485/em 530): 3
Calf thymus DNA
  EM max: 525 nm
  EX max: 509 nm
Nucleic acids [3]
  EM max: 530
  EX max: 510
M. luteus
  Fluorescence/Cell (ex 485/em 530): 21

## CN(C)c1ccc2cc3ccc(N(C)C)cc3nc2c1 [acridine orange]
Nucleic acids [1]; background
  fluorescence enhancement upon binding to nucleic acids: about two-fold
Nucleic acids [1]
  background signal: high background signal

## CCCCC1=CC(=Cc2sc3ccccc3[n+]2C)c2ccccc2N1c1ccccc1 [compound 61]
B. cereus
  Fluorescence/Cell (ex 485/em 530): 196
E. coli
  Fluorescence/Cell (ex 485/em 530): 10
  Normalized Fluorescence/cell (ex 485 nm/em 530 nm), Escherichia coli: 5
DNA
  Normalized QY: 2.5
  QY (DNA): 0.46
  QY: 0.46
P. aeruginosa
  Fluorescence/Cell (ex 485/em 530): 5
[2]; 5 μM, 30 minutes, room temperature
  staining of live cells: live cells are stained fluorescent green
S. aureus
  Fluorescence/Cell (ex 485/em 530): 15
  Normalized Fluorescence/cell (ex 485 nm/em 530 nm), Staphylococcus aureus: 4.7
S. sonnei
  Fluorescence/Cell (ex 485/em 530): 6
S. oranienburg
  Fluorescence/Cell (ex 485/em 530): 10
S. pyogenes
  Fluorescence/Cell (ex 485/em 530): 0.01
K. pneumonia
  Fluorescence/Cell (ex 485/em 530): 10
Nucleic acids [3]
  EM max: 527
  EX max: 500
M. luteus
  Fluorescence/Cell (ex 485/em 530): 49

## CCCCC1=CC(=CC=Cc2oc3ccccc3[n+]2C)c2ccccc2N1c1ccccc1 [compound 637]
DNA
  QY (DNA): 0.28
[4]
  staining of dead cells: stained only with dye 637 and do not exhibit green fluorescence
Nucleic acids [3]
  EM max: 622
  EX max: 601

## C[n+]1c(C=C2C=CN(c3ccccc3)c3ccccc32)sc2ccccc21 [dye 63]
B. cereus
  Fluorescence/Cell (ex 485/em 530): 93
E. coli
  Fluorescence/Cell (ex 485/em 530): 6
  Normalized Fluorescence/cell (ex 485 nm/em 530 nm), Escherichia coli: 3
DNA
  Normalized QY: 1.3
  QY (DNA): 0.24
  QY: 0.24
P. aeruginosa
  Fluorescence/Cell (ex 485/em 530): 3
S. aureus
  Fluorescence/Cell (ex 485/em 530): 5
  Normalized Fluorescence/cell (ex 485 nm/em 530 nm), Staphylococcus aureus: 1.6
S. sonnei
  Fluorescence/Cell (ex 485/em 530): 3
S. oranienburg
  Fluorescence/Cell (ex 485/em 530): 4
S. pyogenes
  Fluorescence/Cell (ex 485/em 530): 0.01
K. pneumonia
  Fluorescence/Cell (ex 485/em 530): 5
Nucleic acids [3]
  EM max: 531
  EX max: 514
M. luteus
  Fluorescence/Cell (ex 485/em 530): 33

## Nc1ccc2c(c1)c(-c1ccccc1)[n+](CCCNCCNCCC[n+]1c(-c3ccccc3)c3cc(N)ccc3c3ccc(N)cc31)c1cc(N)ccc21 [ethidium homodimer]
Prokaryotic microbes
  usefulness with prokaryotic microbes versus eukaryotic microbes: less useful with cells from prokaryotic microbes

## Calcein AM
Intact cells; 37° C., up to
  T1/2 (time for half of dye to leak from intact cells): up to 3 hour
Intact cells; in words
  Loading: Easily loaded
  Retention: very good
  pH sensitivity: not very
Prokaryotic microbes
  usefulness with prokaryotic microbes versus eukaryotic microbes: less useful with cells from prokaryotic microbes
